Laboratory results taken from PubChem BioAssay AID2060907 (Molecular Pharmacology Branch, DTP, NCI, 2025).

Test system: 388556-164-R-J1-PDC complex spheroid viability
Assay: Anticancer human tumor 388556-164-R-J1-PDC patient-derived colon adenocarcinoma cell line growth inhibition [RAS]
Conditions: for viability, T/C: stronger effect = lower value
Method in brief: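 Multi-cell-type spheroids: tumor cells plus HUVEC endothelial cells and mesenchymal stem cells. RAS-pathway inhibitors were combined with targeted agents, each dosed in half-log steps down from clinical Cmax, or from 10 microM when Cmax was unknown.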
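Also: spheroids exposed to compound for 7 days before readout.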
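For viability, T/C in this document: 100% = DMSO vehicle control luminescence.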

Q: Which IC50 (curve of first compound, second compound 0.00316 µM) does the source give for `O=C(c1ccc(F)c(F)c1Nc1ccc(I)cc1F)N1CC(O)([C@@H]2CCCCN2)C1` + C=CC(=O)N1CCN(c2nc(OCC3CCCN3C)nc3c(F)c(-c4nc(N)cc(C)c4C(F)(F)F)c(Cl)cc23)C(C)C1 here?
A: 129 nM

Q: What about the IC50 (curve of first compound, second compound 0.01 µM) of the same compound?
A: 158 nM

Q: What about the IC50 (curve of first compound, second compound 0.0316 µM) of the same compound?
A: 159 nM

Q: What about the IC50 (curve of first compound, second compound 0.1 µM) of the same compound?
A: 191 nM

Q: And the IC50 (curve of first compound, second compound 0.316 µM)?
A: 150 nM

Q: And the IC50 (curve of first compound, second compound 1 µM)?
A: 144 nM

Q: What about the viability, T/C (second compound 0.00316 µM, first compound 0.00316 µM) of the same compound?
A: 97.8%

Q: What about the viability, T/C (second compound 0.00316 µM, first compound 0.01 µM) of the same compound?
A: 90.8%

Q: What about the viability, T/C (second compound 0.00316 µM, first compound 0.0316 µM) of the same compound?
A: 83.7%

Q: What about the viability, T/C (second compound 0.00316 µM, first compound 0.1 µM) of the same compound?
A: 53.5%

Q: And the viability, T/C (second compound 0.00316 µM, first compound 0.316 µM)?
A: 33.5%

Q: And the viability, T/C (second compound 0.00316 µM, first compound 1 µM)?
A: 22.8%

Q: What about the viability, T/C (second compound 0.01 µM, first compound 0.00316 µM) of the same compound?
A: 106%

Q: What about the viability, T/C (second compound 0.01 µM, first compound 0.01 µM) of the same compound?
A: 90.3%

Q: And the viability, T/C (second compound 0.01 µM, first compound 0.0316 µM)?
A: 78.2%

Q: And the viability, T/C (second compound 0.01 µM, first compound 0.1 µM)?
A: 61.2%

Q: And the viability, T/C (second compound 0.01 µM, first compound 0.316 µM)?
A: 34.5%

Q: And the viability, T/C (second compound 0.01 µM, first compound 1 µM)?
A: 20.1%

Q: And the viability, T/C (second compound 0.0316 µM, first compound 0.00316 µM)?
A: 92%

Q: And the viability, T/C (second compound 0.0316 µM, first compound 0.01 µM)?
A: 94.4%

Q: What about the viability, T/C (second compound 0.0316 µM, first compound 0.0316 µM) of the same compound?
A: 82.7%

Q: And the viability, T/C (second compound 0.0316 µM, first compound 0.1 µM)?
A: 59.8%

Q: What about the viability, T/C (second compound 0.0316 µM, first compound 0.316 µM) of the same compound?
A: 35%

Q: What about the viability, T/C (second compound 0.0316 µM, first compound 1 µM) of the same compound?
A: 18.9%

Q: What about the viability, T/C (second compound 0.1 µM, first compound 0.00316 µM) of the same compound?
A: 91.6%

Q: What about the viability, T/C (second compound 0.1 µM, first compound 0.01 µM) of the same compound?
A: 96%

Q: And the viability, T/C (second compound 0.1 µM, first compound 0.0316 µM)?
A: 86.5%

Q: What about the viability, T/C (second compound 0.1 µM, first compound 0.1 µM) of the same compound?
A: 65.4%

Q: What about the viability, T/C (second compound 0.1 µM, first compound 0.316 µM) of the same compound?
A: 38.1%

Q: What about the viability, T/C (second compound 0.1 µM, first compound 1 µM) of the same compound?
A: 23.3%

Q: What about the viability, T/C (second compound 0.316 µM, first compound 0.00316 µM) of the same compound?
A: 95.6%

Q: What about the viability, T/C (second compound 0.316 µM, first compound 0.01 µM) of the same compound?
A: 97%

Q: And the viability, T/C (second compound 0.316 µM, first compound 0.0316 µM)?
A: 84.5%

Q: What about the viability, T/C (second compound 0.316 µM, first compound 0.1 µM) of the same compound?
A: 58.6%

Q: What about the viability, T/C (second compound 0.316 µM, first compound 0.316 µM) of the same compound?
A: 34%

Q: And the viability, T/C (second compound 0.316 µM, first compound 1 µM)?
A: 21.6%

Q: And the viability, T/C (second compound 1 µM, first compound 0.00316 µM)?
A: 97.3%

Q: And the viability, T/C (second compound 1 µM, first compound 0.01 µM)?
A: 96.8%

Q: What about the viability, T/C (second compound 1 µM, first compound 0.0316 µM) of the same compound?
A: 86.1%

Q: What about the viability, T/C (second compound 1 µM, first compound 0.1 µM) of the same compound?
A: 61.5%

Q: What about the viability, T/C (second compound 1 µM, first compound 0.316 µM) of the same compound?
A: 26.7%

Q: And the viability, T/C (second compound 1 µM, first compound 1 µM)?
A: 18.9%

Q: For `CC(=O)OC12COC1CC(O)C1(C)C(=O)C(O)C3=C(C)C(OC(=O)C(O)C(NC(=O)OC(C)(C)C)c4ccccc4)CC(O)(C(OC(=O)c4ccccc4)C21)C3(C)C` (configuration not stated), which viability, T/C (compound 0.0316 µM) is on record?
A: 89.3% [middle of 4 runs]

Q: And the viability, T/C (compound 0.1 µM)?
A: 74.3% [middle of 4 runs]

Q: What about the viability, T/C (compound 0.316 µM) of the same compound?
A: 75% [middle of 4 runs]

Q: And the viability, T/C (compound 1 µM)?
A: 78.8% [middle of 4 runs]

Q: And the viability, T/C (compound 3.16 µM)?
A: 78.5% [middle of 4 runs]

Q: What about the viability, T/C (compound 10 µM) of the same compound?
A: 75.2% [middle of 4 runs]

Q: What about the IC50 (curve of compound) of the same compound?
A: > 10000 nM

Q: How did the viability, T/C (compound 0.01 µM) turn out when `O=C(c1ccc(F)c(F)c1Nc1ccc(I)cc1F)N1CC(O)([C@@H]2CCCCN2)C1` was run?
A: 93.1% [middle of 4 runs]

Q: What about the viability, T/C (compound 0.0316 µM) of the same compound?
A: 82.8% [middle of 4 runs]

Q: What about the viability, T/C (compound 0.1 µM) of the same compound?
A: 56.3% [middle of 4 runs]

Q: What about the viability, T/C (compound 0.316 µM) of the same compound?
A: 40.9% [middle of 4 runs]

Q: And the viability, T/C (compound 1 µM)?
A: 22.8% [middle of 4 runs]

Q: What about the IC50 (curve of compound) of the same compound?
A: 164 nM [middle of 4 runs]

Q: With `O=C(c1ccc(F)c(F)c1Nc1ccc(I)cc1F)N1CC(O)([C@@H]2CCCCN2)C1` + CCn1c(-c2cccnc2C(C)OC)c2c3cc(ccc31)N1CCOC(CC(NC(=O)C(C(C)C)N(C)C(=O)C3(F)CCN(C(=O)C#CC(C)(C)N(C)C)CC3)C(=O)N3CCCC(N3)C(=O)OCC(C)(C)C2)C1 as the compound, how does the IC50 (curve of first compound, second compound 0.000949 µM) read?
A: 241 nM

Q: What about the IC50 (curve of first compound, second compound 0.003 µM) of the same compound?
A: 173 nM

Q: And the IC50 (curve of first compound, second compound 0.00949 µM)?
A: 247 nM

Q: And the IC50 (curve of first compound, second compound 0.03 µM)?
A: 185 nM

Q: And the IC50 (curve of first compound, second compound 0.0949 µM)?
A: 175 nM

Q: What about the IC50 (curve of first compound, second compound 0.3 µM) of the same compound?
A: 172 nM

Q: And the viability, T/C (second compound 0.000949 µM, first compound 0.00316 µM)?
A: 94%

Q: And the viability, T/C (second compound 0.000949 µM, first compound 0.01 µM)?
A: 91.1%

Q: And the viability, T/C (second compound 0.000949 µM, first compound 0.0316 µM)?
A: 81.7%

Q: What about the viability, T/C (second compound 0.000949 µM, first compound 0.1 µM) of the same compound?
A: 70.6%

Q: And the viability, T/C (second compound 0.000949 µM, first compound 0.316 µM)?
A: 43%

Q: What about the viability, T/C (second compound 0.000949 µM, first compound 1 µM) of the same compound?
A: 25.2%

Q: And the viability, T/C (second compound 0.003 µM, first compound 0.00316 µM)?
A: 104%

Q: What about the viability, T/C (second compound 0.003 µM, first compound 0.01 µM) of the same compound?
A: 97.3%

Q: What about the viability, T/C (second compound 0.003 µM, first compound 0.0316 µM) of the same compound?
A: 76.4%

Q: And the viability, T/C (second compound 0.003 µM, first compound 0.1 µM)?
A: 60.8%

Q: What about the viability, T/C (second compound 0.003 µM, first compound 0.316 µM) of the same compound?
A: 39.5%

Q: And the viability, T/C (second compound 0.003 µM, first compound 1 µM)?
A: 22.5%

Q: And the viability, T/C (second compound 0.00949 µM, first compound 0.00316 µM)?
A: 100%

Q: What about the viability, T/C (second compound 0.00949 µM, first compound 0.01 µM) of the same compound?
A: 96.8%

Q: And the viability, T/C (second compound 0.00949 µM, first compound 0.0316 µM)?
A: 77.7%

Q: And the viability, T/C (second compound 0.00949 µM, first compound 0.1 µM)?
A: 64.8%

Q: And the viability, T/C (second compound 0.00949 µM, first compound 0.316 µM)?
A: 47.6%

Q: What about the viability, T/C (second compound 0.00949 µM, first compound 1 µM) of the same compound?
A: 22.6%

Q: And the viability, T/C (second compound 0.03 µM, first compound 0.00316 µM)?
A: 115%

Q: And the viability, T/C (second compound 0.03 µM, first compound 0.01 µM)?
A: 98.1%

Q: What about the viability, T/C (second compound 0.03 µM, first compound 0.0316 µM) of the same compound?
A: 89.9%

Q: And the viability, T/C (second compound 0.03 µM, first compound 0.1 µM)?
A: 62.5%

Q: And the viability, T/C (second compound 0.03 µM, first compound 0.316 µM)?
A: 37.6%

Q: What about the viability, T/C (second compound 0.03 µM, first compound 1 µM) of the same compound?
A: 22.3%

Q: What about the viability, T/C (second compound 0.0949 µM, first compound 0.00316 µM) of the same compound?
A: 102%

Q: What about the viability, T/C (second compound 0.0949 µM, first compound 0.01 µM) of the same compound?
A: 97.5%

Q: And the viability, T/C (second compound 0.0949 µM, first compound 0.0316 µM)?
A: 84.8%

Q: What about the viability, T/C (second compound 0.0949 µM, first compound 0.1 µM) of the same compound?
A: 57.8%

Q: What about the viability, T/C (second compound 0.0949 µM, first compound 0.316 µM) of the same compound?
A: 41.5%

Q: And the viability, T/C (second compound 0.0949 µM, first compound 1 µM)?
A: 23.3%

Q: And the viability, T/C (second compound 0.3 µM, first compound 0.00316 µM)?
A: 81.5%

Q: And the viability, T/C (second compound 0.3 µM, first compound 0.01 µM)?
A: 81.8%

Q: And the viability, T/C (second compound 0.3 µM, first compound 0.0316 µM)?
A: 72.8%

Q: And the viability, T/C (second compound 0.3 µM, first compound 0.1 µM)?
A: 59.1%

Q: And the viability, T/C (second compound 0.3 µM, first compound 0.316 µM)?
A: 39.7%

Q: And the viability, T/C (second compound 0.3 µM, first compound 1 µM)?
A: 20.2%
